In patent publication US20240271096A1, “EFFICIENT DIFFERENTIATION OF SECOND HEART FIELD CARDIAC PROGENITOR CELLS AND RIGHT VENTRICLE CARDIOMYOCYTES FROM HUMAN PLURIPOTENT STEM CELLS” (Wisconsin Alumni Research Foundation, priority 2023, published 2024):

Legend:
[1] = test system: HES3-TBX5-TdTomato^+/W/NKX2-5^eGFP/W reporter hESC line; experiment: NKX2-5-eGFP and TBX5-tdTomato reporter expression during GiWi cardiac differentiation (fluorescence microscopy); assay type: cell-based, human
Source text: Human iPSCs (hiPSCs) were established from a healthy donor (FIG. 1), 201B7 hiPSCs (RIKEN BRC, Tsukuba, Japan), and HES3-TBX5-TdTomato^+/W/NKX2-5^eGFP/Wreporter hESCs that were a kind gift from Dr. Reza Ardehali, UCLA Geffen School of Medicine (Pezhouman et al., 2022, Cardiovasc Res. 118(3):828-43), were used. HiPSCs were maintained on iMatrix-511 (Matrixome, Osaka, Japan)-coated 6-well plates (Corning, Glendale, Arizona, United States) in StemFit AK02N (Ajinomoto, Tokyo, Japan) and passaged every 7 days.
HESCs were maintained on Matrigel Growth Factor Reduced Basement Membrane Matrix (Corning)-coated 6-well plates (Corning) in StemFlex Medium (Thermo Fisher Scientific, Waltham, MA, United States) and passaged every 3-4 days. StemPro Accutase Cell Dissociation Reagent (Thermo Fisher Scientific) was used for dissociation. 10 μmol/L Y27632 (Tocris, Bristol, United Kingdom) was used for improvement of cell survival for 24 hours after seeding. Mycoplasma tests were performed for all the cell culture in this study.
For LV-cardiomyocyte differentiation, cardiac differentiation was performed according to the protocol published by (Lian et al., 2012, Proc Natl Acad Sci USA 109:E1848-57). Cells were dissociated with StemPro Accutase Cell Dissociation Reagent at 37° C. for 5 minutes. HESCs were seeded on Matrigel-coated 24-well plates (Corning) in StemFlex Medium supplemented with 10 μmol/L Y-27632. HiPSCs were seeded on iMatrix-511-coated 12-well plates (Corning) in StemFit AK02N supplemented with 10 μmol/L Y-27632 at seeding densities of 1×10^5 cells/cm^2 for hESCs and 1.25-2.5×10^4 cells/cm^2 for hiPSCs. Cells were cultured for 4 days until the start of differentiation (day 0). On day 0, the medium was changed to RPMI 1640 Medium (Thermo Fisher Scientific) supplemented with B-27 Supplement minus insulin (Thermo Fisher Scientific) (RPMI/B27-insulin) or B-27 Supplement with insulin (Thermo Fisher Scientific), and 12 μmol/L CHIR 99021 (SelleckChem, Houston, TX, United States), and the cells incubated in this medium for 24 h (day 1). On day 1, the medium was changed to RPMI/B27-insulin. To enhance cardiac differentiation, 50 μmol/L 2-O-α-D-glucopyranosyl-L-ascorbic acid (Tokyo Chemical Industry, Tokyo, Japan) was added on day 1 only for hiPSCs (Burridge et al., 2014 Nat Methods, 11:855-860). On day 3, the medium was changed to RPMI/B27-insulin supplemented with 5 μmol/L IWP2 (SelleckChem) and on day 5, the medium was changed to 1 ml RPMI/B27-insulin. From day 7, the cells were cultured with RPMI/B27-insulin, and the cells were fed every other day. On day 12, the cells were washed with PBS (Thermo Fisher Scientific) and cultured with DMEM or RPMI, no glucose supplemented with 8 mmol/L L-(+)-Lactic acid (Merck) (Tohyama et al., 2013 Cell Stem Cell, 12:127-37). The medium was changed every other day until day 17. After day 17, the cells were cultured with RPMI/B27 and fed every 2 to 3 days. For long-term culture, the cells were dissociated with TrypLE™ Select Enzyme (10×) (Thermo Fisher Scientific) at 37° C. for 15-20 minutes and seeded on Matrigel- or iMatrix-511-coated plates. For RV-cardiomyocyte induction, Dorsomorphin 2HCl (SelleckChem), dorsomorphin homologue 1 (DMH1) (SelleckChem), or 3 μg/L insulin were used from day 0 to day 1. For FIG. 15A and FIG. 15B, dorsomorphin (DM) or 3 μg/L insulin were added on day 0 (for 24 hours), 1, 3, or 5 (for 48 hours).

[2] = test system: human induced pluripotent stem cell-derived cardiac progenitor cells; experiment: Quantitative PCR of heart field and cardiac markers in differentiating hiPSCs (day 0 to day 7); assay type: cell-based; conditions: B-27 containing insulin day 0 to day 1; qPCR day 7; vs control cells
Experimental: For LV-cardiomyocyte differentiation, cardiac differentiation was performed according to the protocol published by (Lian et al., 2012, Proc Natl Acad Sci USA 109:[…]-57). Cells were dissociated with StemPro Accutase Cell Dissociation Reagent at 37° C. for 5 minutes. HESCs were seeded on Matrigel-coated 24-well plates (Corning) in StemFlex Medium supplemented with 10 μmol/[…] were seeded on iMatrix-511-coated 12-well plates (Corning) in StemFit A[…] supplemented with 10 μmol/[…] at seeding densities of 1×10^5 cells/cm^2 for hESCs and 1.25-2.5×10^4 cells/cm^2 for hiPSCs. Cells were cultured for 4 days until the start of differentiation (day 0). On day 0, the medium was changed to RPMI 1640 Medium (Thermo Fisher Scientific) supplemented with B-27 Supplement minus insulin (Thermo Fisher Scientific) (RPMI/B27-insulin) or B-27 Supplement with insulin (Thermo Fisher Scientific), and 12 μmol/L CHIR 99021 (SelleckChem, Houston, TX, United States), and the cells incubated in this medium for 24 h (day 1). On day 1, the medium was changed to RPMI/B27-insulin. […] PowerUpTM SYBR Green Master Mix (Thermo Fisher Scientific) and QuantStudio 1 (Thermo Fisher Scientific) were used for quantitative PCR (q-PCR), wherein q-PCR data were processed using the ΔΔCT method. […] Data were analyzed with the web-based tool of GeneGlobe Data Analysis Center (Qiagen).

[3] = 3 μg/mL insulin on day 0, read day 13
[4] = B-27 supplement containing insulin on differentiation day 0, read day 7 (cardiac progenitor stage)
[5] = B-27 supplement containing insulin on differentiation day 0, read day 14 (cardiomyocyte stage)

insulin
Nkx2.5-eGFP expression [1, 3]: strong | TBX5-tdTomato expression [1, 3]: without TBX5-tdTomato expression | eGFP and TBX5-tdTomato expression ([1]; 10 μg/mL insulin on day 0, read day 13): very low | TBX5-tdTomato expression, dose dependence ([1]; 0.1, 0.3, 1, and 3 μg/mL insulin on day 0, read day 13): decreased with increasing doses | NKX2-5-eGFP expression [1, 4]: low | TBX5-tdTomato expression [1, 4]: low | NKX2-5-eGFP expression [1, 5]: high | TBX5-tdTomato expression [1, 5]: low | expression levels of FHF markers (TBX5 and HCN4) [2]: lower expression levels | mRNA expression levels of SHF markers (ISL1 and CXCR4) [2]: higher mRNA expression levels
